{
  "source": "BindingDB's records for doi:10.1016/j.ejphar.2004.01.015",
  "about": "(Abbott Laboratories, 2004)",
  "key": {"Hrh3 protein": {"biological_target": "Hrh3 protein (Rattus norvegicus, UniProt Q5PPG3)", "sequence (Q5PPG3 whole entry)": "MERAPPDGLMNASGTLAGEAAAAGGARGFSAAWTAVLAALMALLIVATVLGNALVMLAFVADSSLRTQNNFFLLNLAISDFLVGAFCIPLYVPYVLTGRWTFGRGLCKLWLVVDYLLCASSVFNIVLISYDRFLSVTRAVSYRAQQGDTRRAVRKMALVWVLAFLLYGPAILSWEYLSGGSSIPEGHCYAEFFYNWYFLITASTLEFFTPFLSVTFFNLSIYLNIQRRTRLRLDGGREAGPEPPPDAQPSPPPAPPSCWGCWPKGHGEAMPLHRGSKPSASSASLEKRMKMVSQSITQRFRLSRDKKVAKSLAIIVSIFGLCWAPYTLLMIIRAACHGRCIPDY"}, "Histamine H1 receptor": {"biological_target": "Histamine H1 receptor (Homo sapiens, UniProt P35367)", "sequence (P35367 whole entry)": "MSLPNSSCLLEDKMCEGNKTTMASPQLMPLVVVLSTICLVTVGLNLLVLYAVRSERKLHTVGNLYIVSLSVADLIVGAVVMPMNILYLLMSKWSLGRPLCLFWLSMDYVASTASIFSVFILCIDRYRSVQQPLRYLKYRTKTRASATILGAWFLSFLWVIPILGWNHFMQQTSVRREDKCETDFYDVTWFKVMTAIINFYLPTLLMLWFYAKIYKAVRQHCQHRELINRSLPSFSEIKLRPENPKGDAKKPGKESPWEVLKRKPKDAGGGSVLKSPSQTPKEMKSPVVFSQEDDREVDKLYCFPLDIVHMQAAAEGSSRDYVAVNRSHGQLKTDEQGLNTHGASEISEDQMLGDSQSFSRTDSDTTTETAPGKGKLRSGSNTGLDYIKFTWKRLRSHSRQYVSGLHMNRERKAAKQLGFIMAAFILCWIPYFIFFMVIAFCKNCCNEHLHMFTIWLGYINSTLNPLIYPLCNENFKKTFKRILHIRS"}, "Histamine H2 receptor": {"biological_target": "Histamine H2 receptor (Homo sapiens, UniProt P25021)", "sequence (P25021 whole entry)": "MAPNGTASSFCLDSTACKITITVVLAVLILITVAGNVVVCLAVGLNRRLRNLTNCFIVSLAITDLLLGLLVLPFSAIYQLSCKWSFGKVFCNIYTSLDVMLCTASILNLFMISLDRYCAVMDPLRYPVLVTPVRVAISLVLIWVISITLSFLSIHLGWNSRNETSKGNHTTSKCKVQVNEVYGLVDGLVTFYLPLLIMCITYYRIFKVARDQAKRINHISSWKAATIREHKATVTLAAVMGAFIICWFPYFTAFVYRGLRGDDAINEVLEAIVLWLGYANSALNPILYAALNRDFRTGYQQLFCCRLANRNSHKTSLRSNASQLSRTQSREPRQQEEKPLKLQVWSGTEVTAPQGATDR"}, "Histamine H3 receptor": {"biological_target": "Histamine H3 receptor (Homo sapiens, UniProt Q9Y5N1)", "sequence (Q9Y5N1 whole entry)": "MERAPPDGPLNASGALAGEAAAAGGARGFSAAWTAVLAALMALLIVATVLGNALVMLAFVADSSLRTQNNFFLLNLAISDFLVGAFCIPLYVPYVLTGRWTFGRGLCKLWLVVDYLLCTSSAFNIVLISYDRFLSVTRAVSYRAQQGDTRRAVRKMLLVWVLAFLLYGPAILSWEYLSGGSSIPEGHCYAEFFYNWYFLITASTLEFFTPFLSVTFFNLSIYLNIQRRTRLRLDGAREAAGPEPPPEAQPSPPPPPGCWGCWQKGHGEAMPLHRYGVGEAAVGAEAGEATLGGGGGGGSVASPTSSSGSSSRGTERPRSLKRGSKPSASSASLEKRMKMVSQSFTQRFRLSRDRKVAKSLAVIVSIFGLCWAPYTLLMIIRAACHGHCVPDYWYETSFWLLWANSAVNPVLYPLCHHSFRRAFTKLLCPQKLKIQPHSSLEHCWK"}, "Histamine H4 receptor": {"biological_target": "Histamine H4 receptor (Homo sapiens, UniProt Q9H3N8)", "sequence (Q9H3N8 whole entry)": "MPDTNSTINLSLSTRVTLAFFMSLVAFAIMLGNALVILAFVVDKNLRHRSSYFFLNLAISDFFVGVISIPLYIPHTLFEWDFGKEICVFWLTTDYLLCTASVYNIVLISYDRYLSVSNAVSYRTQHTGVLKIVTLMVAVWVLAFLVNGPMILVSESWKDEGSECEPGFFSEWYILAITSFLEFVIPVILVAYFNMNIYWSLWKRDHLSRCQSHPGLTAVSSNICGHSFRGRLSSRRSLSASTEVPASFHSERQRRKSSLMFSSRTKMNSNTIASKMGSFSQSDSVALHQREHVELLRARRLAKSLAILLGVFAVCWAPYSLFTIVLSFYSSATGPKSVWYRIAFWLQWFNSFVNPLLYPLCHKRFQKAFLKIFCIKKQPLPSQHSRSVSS"}},
  "note": "Values joined by “and” are separate entries in the source; they are usually repeats but may differ in a detail not shown here. Identical values can stand only once.",
  "data": [
    {"smiles": "S=C(NC1CCCCC1)N1CCC(c2cnc[nH]2)CC1", "values": [
      {"measurement": "Ki", "setting": "Hrh3 protein", "result": "7.5 nM and 3.21 nM"},
      {"measurement": "Ki", "setting": "Histamine H1 receptor", "result": "> 10000", "unit": "nM"},
      {"measurement": "Ki", "setting": "Histamine H2 receptor", "result": "> 10000", "unit": "nM"}
    ]},
    {"smiles": "O=C(c1ccc(OCCCc2cnc[nH]2)cc1)C1CC1", "values": [
      {"measurement": "Ki", "setting": "Hrh3 protein", "result": "0.654 nM and 0.427 nM"},
      {"measurement": "Ki", "setting": "Histamine H1 receptor", "result": "> 10000", "unit": "nM"},
      {"measurement": "Ki", "setting": "Histamine H2 receptor", "result": "> 10000", "unit": "nM"}
    ]},
    {"smiles": "O=C(CCCCC1CCCCC1)N1CCC(c2c[nH]cn2)CC1", "values": [
      {"measurement": "Ki", "setting": "Hrh3 protein", "result": 25.8, "unit": "nM"},
      {"measurement": "Ki", "setting": "Histamine H1 receptor", "result": 2560, "unit": "nM"},
      {"measurement": "Ki", "setting": "Histamine H2 receptor", "result": 7200, "unit": "nM"},
      {"measurement": "Ki", "setting": "Histamine H3 receptor", "result": "499 nM and 136 nM"},
      {"measurement": "Ki", "setting": "Histamine H4 receptor", "result": 734, "unit": "nM"}
    ]},
    {"smiles": "CN(C)[C@@H]1CCN(CCCOc2ccc(-c3ccc(C#N)cc3)cc2)C1", "note": "[A-331440]", "values": [
      {"measurement": "Ki", "setting": "Hrh3 protein", "result": "21.7 nM and 6.28 nM"},
      {"measurement": "Ki", "setting": "Histamine H2 receptor", "result": "> 10000", "unit": "nM"},
      {"measurement": "Ki", "setting": "Histamine H3 receptor", "result": "22.7 nM and 3.24 nM"},
      {"measurement": "Ki", "setting": "Histamine H4 receptor", "result": "> 10000", "unit": "nM"}
    ]},
    {"smiles": "NCCc1c[nH]cn1", "note": "[[3H]histamine]", "values": [
      {"measurement": "Ki", "setting": "Hrh3 protein", "result": "4.9 nM and 2.66 nM"}
    ]}
  ]
}
